Patent publication US10344037B2, “Use of the FL-one hundred eighteen core chemical structure platform to generate FL-one hundred eighteen derivatives for treatment of human disease” (priority 2014, dated 2019)

How the values were obtained:
[1] = tested on: FaDu head-&-neck and SW620 CRC tumor xenografts; assay: Xenografts with acquired irinotecan or topotecan resistance; type: in vivo, SCID mice; conditions: FL118 1.5 or 1 mg/kg IP q2d×5
Protocol: (§1) Individual tumor curves derived from individual mice are shown. A. Mice with FaDu head-&-neck tumor xenografts were first treated with irinotecan at its maximum tolerated dose (MTD, 100 mg/kg, IP) weekly for 4-5 times (black arrow). […] B. Mice with FaDu tumor xenografts were first treated with topotecan at its MTD (4 mg/kg, IP) via daily×5 schedules for 4 cycles (each black arrow is one cycle). […] C. Mice with SW620 CRC xenografts were first treated with irinotecan at its MTD (IP, weekly×4, black arrow). […] D. Mice with SW620 xenograft tumors were first treated with topotecan at its MTD.

[2] = tested on: pancreatic cancer PDX tumors (12872, 12914, 14244, 17624, 19015); assay: Pancreatic cancer patient-derived xenografts (PDX); set-up: species or system SCID mice; conditions: mouse, in vivo
in vivo = conditions: weekly×4
Protocol: as §1

HCT-8 cells = assay: Clonogenic assay, HCT-8 cells with shC or shp53; type: cell-based, human; conditions: 0.3 or 10 nM for 3 days, 14-days culture; shC versus shp53
Protocol: HCT-8 cells are infected with either control lentivirus (shC) or lentivirus expressing shRNA against human p53 (shp53). […] Cell colonies are stained with crystal violet solution after 14-days culture. […] Colonies larger than 50 cells are counted and normalized against non-treatment control group.
Cancer cells are infected with or without lentivirus particles expressing control shRNA or shRNA for p53 knockdown (pLKO.1) followed by selection with puromycin for one week at 5 μg/ml. […] Then the cells are cultured in an incubator at 37° C., 5% CO2 for another two weeks before fixation and staining with crystal violet solution. Colonies are defined as more than 50 cells and/or images are then digitally taken.

survivin promoter = assay: Survivin promoter-luciferase activity assay; type: cell-based, human
Protocol: Cancer cells are seeded in 48-well plates at about 50% confluent overnight in complete cell culture medium. Cells are either stably transfected with the pLuc-4080 survivin promoter-luciferase construct or transiently transfected with relevant luciferase reporter vectors. For transient transfection, 245 ng of targeting luciferase reporter construct plus 5 ng of internal control vector, pRK-tk in 30 μl serum-free DMEM, is mixed in a 1.5 ml tube containing 30 μl serum-free DMEM containing 0.4 μl Lipofectamine™ 2000. After incubation at room temperature for 20-25 minutes, the DNA/Lipofectamine complex is added to each well of 48-well plates, which already contain 300 μl corresponding complete growth medium in each well. […] Cells are further incubated for an additional 24-48 hours in a normoxia and/or hypoxia condition, followed by processing luciferase assays. For luciferase assay, a Dual-Luciferase Reporter Assay System (Promega) is used. Cells in 48-well plates are washed with PBS and lysed with 80 μl 1× passive lysis buffer on a shaker for up to 1 hour at 4° C. Twenty μl cell lysate per well is used to measure the Firefly and Renilla luciferase activity in triplicates in a Luminometer by subsequently adding 20 μl luciferase assay reagent and 20 μl Stop-Glo reagent. […]

HCT-8 colon cancer cells = assay: Cell growth inhibition, 72 hours; type: cell-based, human; conditions: HCT-8 cells
Protocol: Cell growth is then measured and the data are plotted as percentage of growth inhibition (no drug treatment was set at 0%). […] C. […] Representative cancer cell images were taken with a digital camera under phase-contrast microscope.

HCT116-C8 cells = assay: cells; type: cell-based, human
Protocol: (§2) Cancer cell viability and growth are determined by MTT assay. […] MTT is used as a colorimetric substrate for measuring cell viability and growth. When cell growth is inhibited, there is an alteration of cellular redox activity, and thus rendering cells unable to reduce the MTT dye. Cells are seeded in 96 well plates overnight and then treated with or without a compound/drug in the presence or absence of an protein molecule inhibitor (e.g. ABCG2 inhibitor ko143) for 48-72 hours, MTT is added to a final concentration 0.5 mg/ml. Cells are continuously incubated in a 5% CO2 incubator at 37° C. for 4 h with MTT and then lysed with a cell lysis buffer (20% SDS, 50% N,N-dimethylformamide, pH 4.7), 100 μl per well, for 4 h in the incubator. Subsequently, cell absorbance in each well is measured at 570 nm with an Ultra Microplate Reader (Bio-Tek Instruments). Results are reported as the mean±SD from 3-5 independent assays at each point. […] After 72 hours, media is removed and cells are harvested using 0.5 ml of 0.25% Trypsin-EDTA. Cells are counted and viability is analyzed on a Vi-CELL XR Cell Viability Analyzer (Beckman Coulter).

HIF-1α = assay: Western blot for HIF-1α expression under hypoxia in FaDu cells; type: cell-based, human; conditions: 36 h
[3] = tested on: human EU-4 acute lymphocytic leukemia; assay: EU-4 acute lymphocytic leukemia (ALL) mouse model; type: in vivo, SCID mice; conditions: IV, q2×5
Description: The EU-4 cells are intraperitoneally injected (5×10^6 per SCID mouse). […] Body weight changes, belly enlargement and overall mouse survival status are documented every 2-3 days throughout the experiment period.
Of note, “died with ascites” means mice at a moribund/dying state and then being euthanized. This is because moribund mice need to be euthanized based on the animal protocol rule.

HCT116-NS6 cells = assay: cells; type: cell-based, human
Protocol: as §2

HCT116-G7 cells = assay: cells; type: cell-based, human
Protocol: as §2

[4] = tested on: human proteins (MARK3, DDI1, TPD52L2, CACNB1, PGPCR1, USP2, MC2R, FGF18, TP53I3, CNBP, WDR22, PVGCSE-M1, UBE2T, ULP7, RBMS2, BMX, CCNB1IP1); assay: Protein microarray (ProtoArray) with FL118 as a probe; type: binding; conditions: over 9,000 human proteins
Description: These targets include, but not limited to, MAP/microtubule affinity-regulating kinase 3 (MARK3), DNA-damage inducible 1 (DDI1), tumor protein D52-like 2 (TPD52L2), calcium channel, voltage-dependent, beta 1 subunit (CACNB1), Probable G-protein coupled receptor 1 (PGPCR1), ubiquitin specific peptidase 2 (USP2), melanocortin 2 receptor (MC2R), Fibroblast growth factor 18 (FGF18), tumor protein p53 inducible protein 3 (TP53I3), CCHC-type zinc finger, nucleic acid binding protein (CNBP), WD repeat domain 22 (WDR22), Potassium voltage-gated channel subfamily E member 1 (PVGCSE-M1), ubiquitin-conjugating enzyme E2T (putative) (UBE2T), Ubiquitin-like protein 7 (ULP7), RNA binding motif, single stranded interacting protein 2 (RBMS2), Cytoplasmic tyrosine-protein kinase (BMX), and cyclin B1 interacting protein 1 (CCNB1IP1).

[5] = tested on: SW620 and HCT-8 colon cancer cells; assay: MTT assay with ABC transporter inhibitors; type: cell-based, human; conditions: sildenafil 50 μM, 3 days
Protocol: Subconfluent SW620, HCT-8, and HCT-116 cells were lysed and analyzed for the expression of MDR1 and ABCG2 using western blots (WB). Actin is the internal control. […] Cell growth/viability was then analyzed by MTT assays. Each time point in the individual curve is the mean±SD from 3 to 5 independent assays. […] Drugs were then washed out and cells were allowed to grow in new medium without drugs for 2 weeks. Cell colonies were stained with crystal violet solution; images were digitally taken. Triplicate results are shown.

[6] = Lactone ring stability in formulated solution by mass spectrometry; type: physicochemical; conditions: formulated solution on shelf for 30 days at room temperature
Protocol: Mass spectrometry (MS) parameters are used as follows. Bruker Esquire, ion trap; Infusion Flow Rate, 5 μl/min; Ion Polarity, Positive; Ion Source Type, ESI; Dry Temp, 300 deg C.; Nebulizer, 8.00 psi; Dry Gas, 7.00 Umin; HV Capillary, 4000 V; HV End Plate, −500 V; Scan Begin, 100.00 m/z; Average, 30; Max Acc Time, 400 us; and ICC Target, 50000. MS scan is in both negative ion mode and positive ion mode.

[7] = IC50 of topotecan divided by IC50 of the drug

**Q.** With `CC[C@@]1(O)C(=O)OCc2c1cc1n(c2=O)Cc2cc3cc4c(cc3nc2-1)OCO4` [FL118] as the compound, how does the “effect on tumors with acquired irinotecan and topotecan resistance” value [1] read?
**A.** Its value is “effectively regressed”.

**Q.** And the “efficacy on different PDX tumors of the same type” value [2]?
**A.** Its value is “much different efficacy to different tumors of the same type”.

**Q.** And the MTD (in vivo; IV injection)?
**A.** Its MTD is 5 mg/kg.

**Q.** What about the body weight loss (in vivo; oral administration) of the same compound?
**A.** The body weight loss was “Minimal Body Weight Loss”.

**Q.** What about the MTD (in vivo; oral) of the same compound?
**A.** Its MTD is 10 mg/kg.

**Q.** And the clonogenic growth (HCT-8 cells)?
**A.** The clonogenic growth was “inhibits clonogenic growth independent of p53 status”.

**Q.** And the “concentration that can effectively inhibit survivin promoter activity” value (survivin promoter)?
**A.** Its value is 1 to 10 nM.

**Q.** And the “hypoxia-induced survivin promoter activity” value (survivin promoter; HCT116 cells with full-length survivin promoter-luciferase, 24 h, hypoxia)?
**A.** The value was “abrogated by FL118 treatment”.

**Q.** What about the “more sensitive to colon cancer cells than topotecan” value (HCT-8 colon cancer cells) of the same compound?
**A.** Its value is “at least 25 time”.

**Q.** And the IC50 (HCT116-C8 cells)?
**A.** The IC50 was 0.0937 nM.

**Q.** What about the RP (HCT116-C8 cells; [7]) of the same compound?
**A.** Its RP is 4041.

**Q.** What about the “hypoxia-induced HIF-1α expression” value (HIF-1α) of the same compound?
**A.** Its value is “abrogated by FL118 treatment”.

**Q.** And the “ascites production and animal survival” value [3]?
**A.** Its value is “effectively inhibits ascites production and extends animal survival”.

**Q.** And the IC50 (HCT116-NS6 cells)?
**A.** Its IC50 is 0.138 nM.

**Q.** What about the RP (HCT116-NS6 cells; [7]) of the same compound?
**A.** The RP was 40.87.

**Q.** And the IC50 (HCT116-G7 cells)?
**A.** The IC50 was 1.19 nM.

**Q.** What about the RP (HCT116-G7 cells; [7]) of the same compound?
**A.** Its RP is 16.22.

**Q.** And the biochemical targets identified [4]?
**A.** The biochemical targets identified was “Revealed Novel FL118 Biochemical Targets”.

**Q.** What about the “sensitization by multi-efflux pump inhibitor sildenafil” value [5] of the same compound?
**A.** The value was “sildenafil does not sensitize FL118”.

**Q.** And the “lactone versus carboxylate form in solution” value [6]?
**A.** Its value is “fully in lactone form”.
